Measured values as given in publication PMC10620989, “Going beyond Binary: Rapid Identification of Protein–Protein Interaction Modulators Using a Multifragment Kinetic Target-Guided Synthesis Approach” (Journal of Medicinal Chemistry, 2023).
pIC50: −log10 of the molar value. “And” between values parts separate entries of the source, which are not always exact repeats. Identical values can stand only once. Like-named read-outs stand apart in the source and are kept apart here.

Key:
[1] = target: GST-tagged mouse Mcl-1-(152–309) (Mus musculus, UniProt P97287); test: Fluorescence polarization competitive binding assay, GST-Mcl-1 / FITC-Bim-BH3; set-up: selectivity index: reference not given here; details: for inhibition at 50 µM: compound at 50 µM
Sequence of GST-tagged mouse Mcl-1-(152–309) (P97287 152-309): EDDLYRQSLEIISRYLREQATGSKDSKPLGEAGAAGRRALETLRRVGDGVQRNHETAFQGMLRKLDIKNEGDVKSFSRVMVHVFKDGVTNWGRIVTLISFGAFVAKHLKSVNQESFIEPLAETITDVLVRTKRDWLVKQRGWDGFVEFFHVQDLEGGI

GST-Bcl-XL = GST-Bcl-XL (Homo sapiens, UniProt Q07817); test: Fluorescence polarization assay, GST-Bcl-XL / fluorescein-labeled Bak BH3 peptide; type: binding; details: FP, GST-Bcl-XL and fluorescein-labeled Bak BH3 peptide; ND = not detected
Sequence of GST-Bcl-XL (Q07817 whole entry, the tested form may be a part): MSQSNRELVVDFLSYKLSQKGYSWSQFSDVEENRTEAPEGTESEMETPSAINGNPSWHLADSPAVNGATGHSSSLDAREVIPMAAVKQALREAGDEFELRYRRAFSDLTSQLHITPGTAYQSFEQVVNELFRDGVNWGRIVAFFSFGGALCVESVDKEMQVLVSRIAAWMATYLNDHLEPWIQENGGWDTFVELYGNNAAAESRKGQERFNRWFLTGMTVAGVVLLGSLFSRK

Mcl-1 [2] = target: T1, Mcl-1 (Mus musculus, UniProt P97287); test: Multifragment KTGS screen against Mcl-1 (5 TA x 38 SZ per well), LC-MS/MS; details: multifragment KTGS, 190 combinations per well, 10 μM Mcl-1, 20 μM each fragment, pH 7.4, 37 °C, 10 h; peak area with protein / without protein
T1 sequence (P97287 whole entry, the tested form may be a part): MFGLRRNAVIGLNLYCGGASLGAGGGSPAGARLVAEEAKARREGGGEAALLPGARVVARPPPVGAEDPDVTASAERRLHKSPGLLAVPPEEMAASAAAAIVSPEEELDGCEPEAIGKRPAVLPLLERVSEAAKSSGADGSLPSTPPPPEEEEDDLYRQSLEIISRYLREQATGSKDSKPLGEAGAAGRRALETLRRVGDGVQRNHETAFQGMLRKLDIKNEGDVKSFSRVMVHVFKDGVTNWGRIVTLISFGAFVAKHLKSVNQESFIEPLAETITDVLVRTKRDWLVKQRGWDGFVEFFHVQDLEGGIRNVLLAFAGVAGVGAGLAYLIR

Mcl-1 [3] = target: T1, Mcl-1; test: Binary KTGS incubation (1 TA x 1 SZ) with Mcl-1, LC-MS/MS; details: binary incubation mixtures with and without Mcl-1
[4] = FP, GST-Mcl-1 and fluorescein-labeled Bim BH3 peptide, read-out: IC50 on Mcl-1

SMILES	inhibition at 50 µM ([1]; FP) [%]	Amplification coefficient 5TA x 38SZ (Mcl-1 [2])	Amplification coefficient 1TA x 1SZ (Mcl-1 [3])	pIC50 [1, 4]	selectivity index ([1]; quotient of the IC50 toward Bcl-XL over the IC50 toward Mcl-1)	pIC50 ([1]; IC50 on Mcl-1)	pIC50 (GST-Bcl-XL)	selectivity index [1]
Cc1nc(-c2ccccc2)sc1C(=O)NS(=O)(=O)c1ccc(CN(CCSc2ccccc2)Cc2c(F)cccc2Cl)cc1 [SZ15TA3, O=C(NS(C1=CC=C(CN(CCSC2=CC=CC=C2)CC3=C(F)C=CC=C3Cl)C=C1)(=O)=O)C4=C(C)N=C(C5=CC=CC=C5)S4]	95.9	10	5	–	–	5.24	4.44	–
COc1cccc(CN(CCSc2ccccc2)Cc2ccc(S(=O)(=O)NC(=O)c3cccc4ccccc34)cc2)c1 [SZ17TA7, O=C(NS(C1=CC=C(CN(CC2=CC(OC)=CC=C2)CCSC3=CC=CC=C3)C=C1)(=O)=O)C4=C(C=CC=C5)C5=CC=C4]	87.3	10	12	4.70	–	–	4.14	–
O=C(NS(=O)(=O)c1ccc(CN(CCSc2ccccc2)Cc2c(F)cccc2Cl)cc1)c1ccc(OC(F)(F)F)cc1 [SZ15TA8, O=C(NS(C1=CC=C(CN(CCSC2=CC=CC=C2)CC3=C(F)C=CC=C3Cl)C=C1)(=O)=O)C4=CC=C(OC(F)(F)F)C=C4]	96.5	7	6	–	–	5.12	4.33	6.2
Cc1noc(C)c1-c1ccc(S(=O)(=O)NC(=O)c2ccc(CN3C(=O)C(c4ccc(F)cc4F)=C(c4ccc(F)cc4F)C3=O)cc2)cc1 [SZ32TA42, O=C(NS(C1=CC=C(C2=C(C)ON=C2C)C=C1)(=O)=O)C3=CC=C(CN4C(C(C5=C(F)C=C(F)C=C5)=C(C6=CC=C(F)C=C6F)C4=O)=O)C=C3]	91	10	6	4.72	–	–	4.36	–
O=C(NS(=O)(=O)c1ccc(NCCSc2ccccc2)c([N+](=O)[O-])c1)c1ccc(CCc2ccccn2)cc1 [SZ4TA17, O=C(NS(C1=CC=C(NCCSC2=CC=CC=C2)C([N+]([O-])=O)=C1)(=O)=O)C3=CC=C(CCC4=NC=CC=C4)C=C3]	44.7	8	10	4.21 and 4.22	0.03	–	5.68	–
CC1(C)CCN(c2ccc(C(=O)NS(=O)(=O)c3ccc(CNc4cccc([N+](=O)[O-])c4)cc3)cc2)CC1 [SZ12TA2, O=C(NS(C1=CC=C(CNC2=CC=CC([N+]([O-])=O)=C2)C=C1)(=O)=O)C(C=C3)=CC=C3N4CCC(C)(C)CC4]	54.1	7	4	–	–	–	–	–
O=C(NS(=O)(=O)c1ccc(CN(CCSc2ccccc2)Cc2c(F)cccc2Cl)cc1)c1cccc2ccccc12 [SZ15TA7, O=C(NS(C1=CC=C(CN(CCSC2=CC=CC=C2)CC3=C(F)C=CC=C3Cl)C=C1)(=O)=O)C4=C(C=CC=C5)C5=CC=C4]	98.4	8	9	–	–	4.81	–	–
Cn1cc(C(=O)C2CCCCC2)c2cc(C(=O)NS(=O)(=O)c3ccc(-c4ccc(C(C)(C)C)cc4)cc3)ccc21 [SZ11TA40, O=C(NS(C1=CC=C(C2=CC=C(C(C)(C)C)C=C2)C=C1)(=O)=O)C3=CC(C(C(C4CCCCC4)=O)=CN5C)=C5C=C3]	> 99	8	5.5	4.66	–	–	–	–
O=C(NS(=O)(=O)c1ccc(CN(CCSc2ccccc2)Cc2ccc3c(c2)OCO3)cc1)c1cccc(NCCc2ccccc2)c1 [SZ31TA44, O=C(NS(C1=CC=C(CN(CC2=CC(OCO3)=C3C=C2)CCSC4=CC=CC=C4)C=C1)(=O)=O)C5=CC(NCCC6=CC=CC=C6)=CC=C5]	36.5	10	12	–	–	–	–	–
NS(=O)(=O)c1ccc(CN(CCSc2ccccc2)Cc2ccc(S(=O)(=O)NC(=O)c3ccc(-c4ccccn4)cc3)cc2)cc1 [SZ10TA25, O=C(NS(C1=CC=C(CN(CCSC2=CC=CC=C2)CC3=CC=C(S(=O)(N)=O)C=C3)C=C1)(=O)=O)C4=CC=C(C5=NC=CC=C5)C=C4]	93.6	12	5	–	–	–	–	–
NS(=O)(=O)c1ccc(CN(CCSc2ccccc2)Cc2ccc(S(=O)(=O)NC(=O)Cn3c4ccccc4c4ccccc43)cc2)cc1 [SZ10TA15, O=C(NS(C1=CC=C(CN(CC2=CC=C(S(=O)(N)=O)C=C2)CCSC3=CC=CC=C3)C=C1)(=O)=O)CN4C(C=CC=C5)=C5C6=C4C=CC=C6]	37.4	10	8	–	–	–	–	–
COc1cccc(CN(CCSc2ccccc2)Cc2ccc(S(=O)(=O)NC(=O)c3ccc(C(c4c[nH]c5ccccc45)c4c[nH]c5ccccc45)cc3)cc2)c1 [SZ17TA31, O=S(C1=CC=C(C=C1)CN(CCSC2=CC=CC=C2)CC3=CC=CC(OC)=C3)(NC(C(C=C4)=CC=C4C(C5=CNC6=C5C=CC=C6)C7=CNC8=C7C=CC=C8)=O)=O]	42.5	21	9	–	–	–	–	–
[N-]=[N+]=NS(=O)(=O)c1ccc(CN(CCSc2ccccc2)Cc2ccc(S(=O)(=O)NC(=O)c3ccc(-c4ccccn4)cc3)cc2)cc1 [SZ9TA25, O=C(NS(C1=CC=C(CN(CCSC2=CC=CC=C2)CC3=CC=C(S(=O)(N=[N+]=[N-])=O)C=C3)C=C1)(=O)=O)C4=CC=C(C5=NC=CC=C5)C=C4]	47.6	15	8	–	–	–	–	–
COc1ccc(Cc2ccc(C(=O)NS(=O)(=O)c3ccc(CN(CCSc4ccccc4)Cc4c(F)cccc4Cl)cc3)cc2)c(OC)c1OC [SZ15TA24, O=C(NS(C1=CC=C(CN(CCSC2=CC=CC=C2)CC3=C(F)C=CC=C3Cl)C=C1)(=O)=O)C4=CC=C(CC5=CC=C(OC)C(OC)=C5OC)C=C4]	70.8	20	15	–	–	–	–	–
CCOc1ccc(-c2ccc3c(c2)c(C(=O)NS(=O)(=O)c2cccc4c(N(C)C)cccc24)cn3C)cc1F [SZ21TA23, O=C(NS(C1=CC=CC2=C1C=CC=C2N(C)C)(=O)=O)C(C3=C4C=CC(C5=CC=C(OCC)C(F)=C5)=C3)=CN4C]	42.8	7	4	–	–	–	–	–

Further lines, with some results ahead:

inhibition at 50 µM ([1]; FP) [%]	Amplification coefficient 5TA x 38SZ (Mcl-1 [2])	Amplification coefficient 1TA x 1SZ (Mcl-1 [3])	pIC50 [1, 4]	selectivity index ([1]; quotient of the IC50 toward Bcl-XL over the IC50 toward Mcl-1)	SMILES	pIC50 ([1]; IC50 on Mcl-1)	pIC50 (GST-Bcl-XL)	selectivity index [1]
40.2	25	6	–	–	Cn1cc(C(=O)c2cccs2)c2cc(C(=O)NS(=O)(=O)c3ccc(CN(CCSc4ccccc4)Cc4ccc5c(c4)OCO5)cc3)ccc21 [SZ31TA45, O=C(NS(C1=CC=C(CN(CC2=CC(OCO3)=C3C=C2)CCSC4=CC=CC=C4)C=C1)(=O)=O)C5=CC(C(C(C6=CC=CS6)=O)=CN7C)=C7C=C5]	–	–	–
93.1	24	15	–	–	Cn1cc(C(=O)C2CCCCC2)c2cc(C(=O)NS(=O)(=O)c3ccc(COc4ccc5c(=O)cc(-c6ccccc6)oc5c4)cc3)ccc21 [SZ14TA40, O=C(NS(C1=CC=C(COC2=CC=C(C(C=C(C3=CC=CC=C3)O4)=O)C4=C2)C=C1)(=O)=O)C5=CC=C6C(C(C(C7CCCCC7)=O)=CN6C)=C5]	–	–	–
98.1	12	4	4.50	–	O=C(NS(=O)(=O)c1ccc(-c2ccc(C(F)(F)F)cc2)cc1)c1cccc(NCCc2ccccc2)c1 [SZ16TA44, O=C(NS(C1=CC=C(C2=CC=C(C(F)(F)F)C=C2)C=C1)(=O)=O)C3=CC(NCCC4=CC=CC=C4)=CC=C3]	–	–	–
59.5	10	4	–	–	O=C(NS(=O)(=O)c1ccc(CN(CCSc2ccccc2)Cc2ccc3c(c2)OCO3)cc1)c1ccc(-c2ccc(F)cc2)cc1 [SZ31TA14, O=C(NS(C1=CC=C(CN(CC2=CC(OCO3)=C3C=C2)CCSC4=CC=CC=C4)C=C1)(=O)=O)C5=CC=C(C6=CC=C(F)C=C6)C=C5]	–	–	–
64.1	7	6	–	–	NS(=O)(=O)c1ccc(CN(CCSc2ccccc2)Cc2ccc(S(=O)(=O)NC(=O)CC3Sc4ccccc4NC3=O)cc2)cc1 (stereo not drawn) [SZ10TA34, O=C(NS(C1=CC=C(CN(CCSC2=CC=CC=C2)CC3=CC=C(S(=O)(N)=O)C=C3)C=C1)(=O)=O)CC4SC5=CC=CC=C5NC4=O]	–	–	–
53.6	9	10	–	–	O=C(Cn1c2ccccc2c2ccccc21)NS(=O)(=O)c1ccc(CN(CCSc2ccccc2)Cc2c(F)cccc2Cl)cc1 [SZ15TA15, O=C(NS(C1=CC=C(CN(CCSC2=CC=CC=C2)CC3=C(F)C=CC=C3Cl)C=C1)(=O)=O)CN4C(C=CC=C5)=C5C6=C4C=CC=C6]	–	–	–
60.6	13	4	–	–	COc1cccc(CN(CCSc2ccccc2)Cc2ccc(S(=O)(=O)NC(=O)Cn3c4ccccc4c4ccccc43)cc2)c1 [SZ17TA15, O=C(NS(C1=CC=C(CN(CC2=CC(OC)=CC=C2)CCSC3=CC=CC=C3)C=C1)(=O)=O)CN4C(C=CC=C5)=C5C6=C4C=CC=C6]	–	–	–
19.2	20	10	–	–	COc1cc2c(cc1OC)C(c1ccccc1)N(Cc1ccc(S(=O)(=O)NC(=O)CCCN3C(=O)C(c4ccc(F)cc4F)=C(c4ccc(F)cc4F)C3=O)cc1)CC2 (stereo not drawn) [SZ8TA20, O=C(NS(C1=CC=C(CN2CCC(C=C(OC)C(OC)=C3)=C3C2C4=CC=CC=C4)C=C1)(=O)=O)CCCN5C(C(C6=C(F)C=C(F)C=C6)=C(C7=CC=C(F)C=C7F)C5=O)=O]	–	–	–
